Measured values as given in ChEMBL document CHEMBL1201862, “PubChem BioAssay data set” (2004).
Calls of active or inactive are those of the source.

Experiments:
[1] = biological target: Glucose-6-phosphate 1-dehydrogenase (Homo sapiens, UniProt P11413); assay: human G6PD enzyme inhibitors, dose response, selectivity assay for P. falciparum G6PD inhibitor project, biochemical, fluorescence (AID 504792); assay type: functional
Genome polyprotein = Genome polyprotein (dengue virus type 2, UniProt P29990); assay: Dengue-2 NS5 methyltransferase inhibitors, primary screen, biochemical, confirmation dose response (AID 588689); assay type: functional
[2] = biological target: T1, Probable nicotinate-nucleotide adenylyltransferase (Staphylococcus aureus (strain N315), UniProt P65502); assay type: functional, Staphylococcus aureus subsp. aureus N315;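 as to IC50 Mean: confirmatory dose-response retesting of NadD inhibitor hits first found in an ultra-high-throughput screen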
[3] = biological target: T1, Probable nicotinate-nucleotide adenylyltransferase; assay type: functional, Staphylococcus aureus subsp. aureus N315; conditions: read-out: IC50_Mean
Mu-type opioid receptor = Mu-type opioid receptor (Homo sapiens, UniProt P35372); assay type: functional, cell-based;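 also: U2OS cells with beta-arrestin recruitment to OPRM1 by beta-gal complementation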
[4] = biological target: 5-hydroxytryptamine receptor 2A (Mus musculus, UniProt P35363); assay type: functional, cell-based;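 also: CHO-K1 cells with tagged receptor and beta-arrestin; agonist potency measured as compound-induced activation of the receptor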
Beta-galactosidase = Beta-galactosidase (Escherichia coli, UniProt Q8VNN2); assay: Dose response counterscreen for EBI2 assay utilizing the enzyme, b-galactosidase.; assay type: functional
Melanocortin receptor 4 = Melanocortin receptor 4 (Homo sapiens, UniProt P32245); assay: MC4R antagonist potency on cAMP, dose response, cell-based, TR-FRET, biased antagonists (AID 602298); assay type: functional;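 also: antagonist potency against agonist-stimulated cAMP production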
[5] = nonselective inhibitors of cellular cAMP signaling, dose response, counter-screen for MC4R biased antagonist project, cell-based, TR-FRET cAMP detection (AID 602305); assay type: functional;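 also: U2OS cells stimulated with forskolin near its EC80 as the cAMP inducer; potency is for inhibition of forskolin-stimulated cAMP signaling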
[6] = biological target: T2, Rac GTPase-activating protein 1 (Homo sapiens, UniProt Q9H0H5); assay: MgcRacGAP GTPase-activating activity inhibitors, confirmation, biochemical, ADP Hunter fluorescence, primary and confirmatory (AID 624330); assay type: functional
T2 sequence (Q9H0H5 whole entry): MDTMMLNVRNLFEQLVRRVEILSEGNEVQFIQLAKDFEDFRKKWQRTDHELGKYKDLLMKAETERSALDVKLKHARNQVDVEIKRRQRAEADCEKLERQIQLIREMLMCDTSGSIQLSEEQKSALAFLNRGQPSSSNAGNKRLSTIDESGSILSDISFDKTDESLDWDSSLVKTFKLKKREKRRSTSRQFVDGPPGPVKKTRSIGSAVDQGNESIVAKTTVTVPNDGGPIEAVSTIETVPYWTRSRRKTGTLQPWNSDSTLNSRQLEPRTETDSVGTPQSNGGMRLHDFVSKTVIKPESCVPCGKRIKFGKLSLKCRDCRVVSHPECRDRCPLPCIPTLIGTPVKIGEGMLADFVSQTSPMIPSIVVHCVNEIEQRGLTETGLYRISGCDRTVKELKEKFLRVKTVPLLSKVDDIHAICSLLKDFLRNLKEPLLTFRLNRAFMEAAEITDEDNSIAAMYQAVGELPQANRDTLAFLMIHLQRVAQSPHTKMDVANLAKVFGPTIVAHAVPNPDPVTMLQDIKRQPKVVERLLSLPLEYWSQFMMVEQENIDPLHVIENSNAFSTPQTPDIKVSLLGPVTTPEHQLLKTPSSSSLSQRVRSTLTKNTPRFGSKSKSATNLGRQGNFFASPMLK

Albumin = Albumin (Bos taurus, UniProt P02769); assay: Counterscreen for inhibitors of T-cell receptor (TCR)-CD3 interaction: Fluorescence-based biochemical high throughput dose response assay to identify inhibitors of T-cell receptor (TCR)-CD3 interaction using a TAMRA-labeled BSA probe.; assay type: functional
Major prion protein = Major prion protein (Homo sapiens, UniProt P04156); assay type: functional, cell-based
[7] = NIH-3T3 fibroblast cytotoxicity, dose response, cytotoxicity control, cell-based, fluorescence, Alamar Blue, secondary assay (AID 2327); assay type: functional;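 also: NIH-3T3 mouse fibroblasts cultured with fluconazole at 8 µg/mL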
[8] = system: Streptococcus sp. 'group A'; assay: growth inhibition of control SK(-) GAS strain, dose response, counter-screen for streptokinase expression inhibitor project, luminescence, kanamycin, BacTiterGlo, confirmation (AID 1900); assay type: functional, organism-based
[9] = C. albicans growth with fluconazole, confirmation, fluorescence, retest (AID 2467); assay type: functional, cell-based
[10] = biological target: T3, Serine/threonine-protein phosphatase (Candida dubliniensis (strain CD36 / CBS 7987 / NCPF 3949 / NRRLY-17841) (Yeast), UniProt B9W6M3); assay: calcineurin pathway inhibitors in yeast reporter, dose response, S. cerevisiae, CDRE-lacZ, luminescence, secondary (AID 2388); assay type: functional, cell-based;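 also: yeast reporter cells carrying a calcineurin-responsive lacZ construct stimulated with calcium chloride; luminescent beta-galactosidase reporter signal in whole cells rather than isolated phosphatase activity; potency for inhibition where a drop in reporter signal means calcineurin blockade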
T3 sequence (B9W6M3 whole entry): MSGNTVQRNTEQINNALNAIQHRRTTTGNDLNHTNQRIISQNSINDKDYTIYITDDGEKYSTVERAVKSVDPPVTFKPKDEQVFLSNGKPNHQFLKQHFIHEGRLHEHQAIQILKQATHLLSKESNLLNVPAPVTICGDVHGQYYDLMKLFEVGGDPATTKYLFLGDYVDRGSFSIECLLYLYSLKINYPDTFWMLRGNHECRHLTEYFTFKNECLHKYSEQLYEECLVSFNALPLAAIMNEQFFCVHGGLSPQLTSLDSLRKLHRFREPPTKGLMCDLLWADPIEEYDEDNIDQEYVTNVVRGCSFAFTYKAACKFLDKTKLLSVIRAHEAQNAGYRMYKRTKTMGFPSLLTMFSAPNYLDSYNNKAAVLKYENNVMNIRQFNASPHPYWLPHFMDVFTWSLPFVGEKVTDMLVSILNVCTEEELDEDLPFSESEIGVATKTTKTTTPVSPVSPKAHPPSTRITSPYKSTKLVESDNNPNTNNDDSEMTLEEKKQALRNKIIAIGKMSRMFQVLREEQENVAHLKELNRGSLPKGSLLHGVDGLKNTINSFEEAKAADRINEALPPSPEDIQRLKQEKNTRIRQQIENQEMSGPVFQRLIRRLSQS

Streptococcus = assay: Group A Streptococcus viability loss, dose response, counter-screen for streptokinase expression inhibitor project, luminescence, BacTiterGlo (AID 1915); assay type: functional, organism-based;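 also: potency for reduction of bacterial viability or growth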
Vero = assay: cells; assay type: functional; conditions: Chlorocebus sabaeus
[11] = biological target: ATP-dependent molecular chaperone HSP82 (Candida albicans (strain WO-1) (Yeast), UniProt C4YTQ8); assay: loss of DOC-induced GRE-beta-galactosidase reporter signal, dose response, Hsp90 inhibitor project, S. cerevisiae, luminescence (AID 2400); assay type: functional, cell-based;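 also: beta-galactosidase luminescence from glucocorticoid response element reporter as proxy for Hsp90 function; inhibitor potency where signal loss means Hsp90 inhibition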

Structure (SMILES): [O-][S+](c1ccccc1O)[S+]([O-])c1ccccc1O (stereo not drawn)
- IC50 [1]: 54.1 µM (inactive)
- IC50 (Genome polyprotein): 68 µM (active)
- IC50 [2]: 3.33 µM (active)
- IC50 [3]: 9.15 µM (active)

Structure (SMILES): NC1CCc2cc(O)c(O)cc2C1 (stereo not drawn)
- IC50 [1]: > 80 µM (inactive)
- EC50 (Mu-type opioid receptor): 92.5 µM (inactive)
- EC50 [4]: 0.0131 µM (active)

Structure (SMILES): CNCCc1c[nH]c2ccc(O)cc12
- EC50 (Mu-type opioid receptor): 92.4 µM (inactive)
- EC50 [4]: 1.73 µM (active)

Structure (SMILES): CN(c1ccc(C(=O)N2CCN(Cc3ccccc3)CC2)cc1)S(=O)(=O)c1ccc(Cl)cc1
- EC50 (Mu-type opioid receptor): 92.4 µM (inactive)
- EC50 [4]: 2.82 µM (active)

Structure (SMILES): COCCN1C(=O)c2cc(C(=O)Nc3ccc(C)c(F)c3)ccc2C1Nc1ccc(C)c(F)c1 (stereo not drawn)
- IC50 (Beta-galactosidase): > 80 µM (inactive)

Structure (SMILES): COC(=O)C1CCN(CCCOc2ccc(CN3CCN(c4ccc([N+](=O)[O-])cc4)CC3)cc2)CC1
- EC50 (Mu-type opioid receptor): 92.6 µM (inactive)
- EC50 [4]: 0.57 µM (active)

Structure (SMILES): CC1(C)CC(=O)C(C(C2=C(O)CC(C)(C)CC2=O)c2cccs2)C(=O)C1 (stereo not drawn)
- IC50 (Genome polyprotein): 46.3 µM (active)
- IC50 (Melanocortin receptor 4): 29.9 µM (inactive)
- IC50 [5]: > 64.6 µM (inactive)
- IC50 [6]: 73 µM (active)

Structure (SMILES): COc1ccc(N2CCN(C(=O)c3ccc4[nH]c(C)c(C)c4c3)CC2)cc1
- IC50 (Beta-galactosidase): > 80 µM (inactive)

Structure (SMILES): CC(=O)c1ccc(NC(=O)CN2C(=O)/C(=C/C(C)=C/c3ccccc3)SC2=S)cc1
- IC50 (Albumin): > 94.1 µM (inactive)

Structure (SMILES): C=CCOc1ccc(C(=O)/C=C2/C(=O)Nc3ccccc32)cc1
- IC50 (Beta-galactosidase): > 80 µM (inactive)

Structure (SMILES): COc1ccc(N2CCN(C(=O)c3cc(=O)c4cc(C)ccc4o3)CC2)cc1
- IC50 (Beta-galactosidase): > 80 µM (inactive)

Structure (SMILES): CCc1nc(SCC(=O)NNC(=O)c2ccc(OC)cc2)c2ccccc2n1
- IC50 (Major prion protein): 1.72 µM (active)
- IC50 (cells): > 138 µM (inactive)

Structure (SMILES): Cc1cccc2sc(NNC(=O)c3cc(-c4cccs4)nc4ccccc34)nc12
- EC50 [7]: 10.7 µM (inconclusive)
- EC50 [8]: 0.889 µM (active)
- EC50 [9]: 0.507 µM (active)
- EC50 [10]: > 180 µM (inactive)
- EC50 (Streptococcus): 2.14 µM (active)
- CC50 (Vero): 11.5 µM (active)
- EC50 [11]: 16.2 µM (active)
- IC50 [2]: 13.3 µM (active)
- IC50 [3]: 26.7 µM (active)
